Experimental findings from patent publication US6200962A, “Thionophosphate derivatives, process for their preparation and pharmaceutical compositions containing them” (priority 1994, dated 2001) are described below.

Series [1] in a line: Hydroxyl radical chemiluminescence method (H2O2, NTA-Fe2+, HRP). Particulars: increasing concentrations. Here is the method: Chemiluminescence (CL) was measured in mixtures of H2 O2, NTA-Fe^2+ and HRP (Horseradish peroxidase) systems in a LUMAC/3M BIOCONTER M2010 connected to a linear recorder as described [Ginsburg, I. et al. (1993) Inflammation 17:227-243]. The scavenging of hydroxyl radicals was done by various concentrations of AMTP (compound C dissolved in reaction buffer).
where A is the absorbance in the presence of a scavenger S (AMTPs) at a concentration [S] and A0 is the absorbance in the absence of a scavenger KDR =3.1*10^9 (reaction constant between deoxyribose and OH. radical) [Ebert, M., et al. (1965) Pulse Radiolysis, Academic Press, London] and [DR]=18 mM. […] Considering the fast reaction between H2 O2 and Fe^2+ --NTA and the slow reaction rate between AMTP and hydrogen peroxide as monitored in the ^31 P experiments (FIG. 5), the light decay may be exclusively attributed to hydroxyl radical scavenging.

Series [2] can be described thus: oil(mineral)/water and octanol/water partitioning. The format is physicochemical. From the text:
The basic chemical structure of the compounds of the invention includes the group --P--N=S, which resembles the thiourea --N--C=S core, in which the central carbon atom has been replaced by a phosphorus atom, to give --N--P=S, which is the characteristic functional group the novel compounds of the invention. This functional group is based on a primary amido thionophosphate (AMTP) chemical bond. The specific compounds shown in FIG. 1, which are only representative of the numerous possible compounds, differ in their oil(mineral) /water and octanol/water partitioning: […]

In series [3] the test system is Human neutrophils (PMNs). Kind of series: Chemiluminescence of PMNs activated by cationized streptococci. The format is cell-based. Here is the method:
Human neutrophils (PMNs) were isolated from freshly drawn human blood according to already published procedures [Ginsburg et al., ibid.].
Chemiluminescence was measured in activated PMNs at 37° C. in a LUMAC/3M BIOCONTER M2010 connected to a linear recorder. PMNs (3*10^5 -2*10^6 /ml) were pipetted into plastic cuvettes, containing 1 ml HBSS, luminol (5*10^-5 M) and washed Streptococci 20 μl/ml (ten milliliters of a saline-washed suspension of group A Streptococci type 3 strain C203S of an optical density of 5.0 at 550 nm that was treated for 15 min at 37° C. with 100 μg/ml of poly L-histidine (PHSTD)HCL mol wt 23,000). The cationized suspension was then washed in normal saline and resuspended to the original volume. The cuvettes were mixed over a mechanical vortex and the chemiluminescence was immediately monitored until the peak CL was reached.
Modulation of chemiluminescence response was achieved by employing AMTP (compound B) molecules in various concentrations.
Two experiments were done. In the first experiment with 3-4*10^5 cells/ml, a concentration of less than 1 mM of compound B was required to quench 90% of light production. Control 1 in FIG. 13 represents neutrophils treated with streptococcus alone (14,000-17,000 light units at the peak), Spontaneous light production measurements were 1,400-2,000 light CPM. In the second experiment Control 2 represents 1.5*10^6 cells per 1 ml HBSS activation of the cells by cationized streptococcus produced between 50,000-63,000 light units at the peak. 8 mM of compound B reduced the light measurements to the base level of 3500 light units.

A value given as a limit tells only on which side of the number the result lay.

As to `CCOP(=S)(NCCO)OCC` [Compound B, 2-hydroxyamido diethyithionophosphate], in series [1], the “decay of light (hydroxyl radical scavenging)” value was “Dose dependent decay of light”. In addition, the logP in series [2] (octanol/water, read-out: P (octanol/water) (converted)) is 0.508. The “P (oil/water)” value in series [2] (oil(mineral)/water) worked out at 0.25. Besides, the “light production at 8 mM” value in series [3] (8 mM, 1.5*10^6 cells/ml, control 50,000-63,000) was 3500 light units. Moreover, in series [3] (Homo sapiens, Neutrophil, 3-4*10^5 cells/ml, read-out: concentration required to quench 90% of light production), the IC90 was under 1000 µM. Further, the “reduction of light emission” value in series [3] (various concentrations) was “dose dependent reduction of light emission”.
